Consider 24 molecules from patent publication US3961054A, “Combatting dandruff with mercapto quinoline N-oxides” (Ciba-Geigy Corporation, priority 1974, dated 1976).

Series [1] has as its system P. Ovale. As to the kind of experiment: Microbiological activity against P. Ovale, agar serial dilution (Table 1). It is filed as cell-based, P. Ovale (ATCC 14521). The conditions noted are these: for MIC: 96 h, read-out: Minimum Inhibitory Concentration (MIC) against P. Ovale. How it is done:
The microbiological activities of the zinc and sodium complexes of 2-mercapto-quinoline-N-oxide (MQNO) against P. Ovale were compared with the sodium and zinc salts of pyridinethione-N-oxide (PTO) and other conventional soapbacteriostats. P. Ovale is a microorganism associated with dandruff conditions.
Equal amounts of the respective compounds were dissolved in methyl cellosolve, dimethylformamide, or water, serially diluted in ten fold sequence and incorporated into plates of molten Agar. The plates were allowed to solidify, were then inoculated with P. Ovale (ATCC 14521), incubated at 27°C. for 4 days and inspected for growth.

In the next series the test system is Staph. aureus. As to the kind of experiment: Antimicrobial spectrum, MIC, Staph. aureus (Table 3). In kind it is cell-based, Staph. aureus ATCC 6538. The settings on record: Staphylococcus aureus. Here is the method: (§1) Equivalent amounts of ZnMQNO, NaMQNO, ZnPTO and NaPTO were solubilized in methyl cellosolve (PTO) and dimethyl formamide (MQNO). Ten fold serial dilutions were prepared employing additional solvent and equal aliquots pipetted into molten (50°C) agar support media. Nutrient Agar was employed for all bacteria and Mycological Agar was employed for the fungi and dermatophyte. After preparing pour plates for the bacteria and streaks for the fungi and dermatophyte, the plates were incubated (37°C and 27°C, respectively) and observed for growth.

For a further series, the system named is Proteus vulgaris. As to the kind of experiment: Antimicrobial spectrum, MIC, Proteus vulgaris (Table 3). It is filed as cell-based. The conditions noted are these: ATCC9920, ATCC 9920, Nutrient Agar, 37°C, ten fold dilutions, read-out: Minimum Inhibitory Concentration, Proteus vulgaris. How it is done:
as §1

The next series deals with Aspergillus oryzae. Put plainly: Antimicrobial spectrum, MIC, Aspergillus oryzae (Table 3). The settings on record: for MIC: Aspergillus oryzae. It is filed as cell-based, Aspergillus oryzae ATCC 10196. Here is the method: as §1
Another series relates to dandruff. The conditions noted are these: in words; background; cited from earlier work.
For series [2], the system named is P. Ovale. As to the kind of experiment: Substantivity/activity in calf skin, zone of inhibition against P. Ovale (Table 2). It is filed as cell-based. Also noted: unit not given here. The conditions noted are these: 2% in shampoo, replicate plates 1-4, 27°C, 4 days. An excerpt:
The substantivity/activity of the zinc complex of 2-mercapto-quinoline-N-oxide of the invention in calf-skin were compared with the zinc salt of pyridinethione-N-oxide in the following manner. ZnMQNO and ZnPTO were incorporated by blending on a 3-roll mill in amounts of 1% and 2% by weight into a non-bacteriostatic paste shampoo of the following composition.
Calf skin specially prepared by the method of Vinson IN VITRO TESTS FOR MEASURING ANTIBACTERIAL ACTIVITY OF TOILET SOAP AND DETERGENT BARS by L. J. Vinson, E. L. Ambye, A. G. Bennet, Journal of Pharmaceutical Sciences, Vol. 50, P. 10, October, 1961.
0.3 g of shampoo was applied in each instance to 12.5 sq. in. of calf skin (equivalent to […] of shampoo per 90.2 sq. in. of human scalp) and a rich lather worked up for 2 minutes. The calf skin was then rinsed in running tap water for 30 seconds with vigorous message to remove all lather. The moist skin was then given a second lather identical to the first and again rinsed as before. After air drying, the calf skins were cut into 2.1 cm discs and placed on agar inoculated with P. Ovale. After 4 days incubation at 27°C, the zones of inhibition size were recorded.

For series [3], the system named is Gram-positive and negative bacteria, fungi and dermatophytes. Put plainly: Antimicrobial spectrum, overall (Example 8). The settings on record: in words, from Table 3. In kind it is cell-based. How it is done: as §1
For a further series, the system named is T. interdigitale. As to the kind of experiment: Antimicrobial spectrum, MIC, T. interdigitale (Table 3). In kind it is cell-based, Trichophyton interdigitale ATCC 9533. The conditions noted are these: Trichophyton interdigitale, ATCC9533, read-out: Minimum Inhibitory Concentration, T. interdigitale. Here is the method: as §1
A short description of series [4]: Relative solubility (statement in words). In kind it is physicochemical. The settings on record: explains smaller zone size in agar.
Setting [5] is: Pityrosporum ovale, agar, 27°C, 4 days.

Converted amounts (≈) assume the structure as drawn. “And” between values parts separate entries of the source, which are not always exact repeats. Equal values may be shown once. Where a name gives a salt, the structure may show the parent alone. Read-outs that look alike come from different tables or passages of the source.

On to `[O-][n+]1c(S)ccc2ccccc21` [Na MQNO, Sodium Complex Of 2-Mercapto-Quinoline-N-Oxide], for which the MIC in the series on P. Ovale [1] (setting [5]) was 50 to 60 µg/mL; with Staph. aureus (ATCC6538, ATCC 6538, Nutrient Agar, 37°C, ten fold dilutions, read-out: Minimum Inhibitory Concentration, Staph. aureus) it was 0.1 µg/mL; with Proteus vulgaris, 0.1 µg/mL; with Aspergillus oryzae (ATCC10196, ATCC 10196, Mycological Agar, 27°C, ten fold dilutions, read-out: Minimum Inhibitory Concentration, Aspergillus oryzae) it was 10100 µg/mL. Take `[S]` [elemental sulfur]: the “anti-dandruff activity (prior art agents)” value with dandruff is given as “extremely effective in the control of dandruff”. Turning to `Sc1ccccn1` [2-mercaptopyridine], in the series with P. Ovale [1] (setting [5]), the MIC is > 1000 µg/mL. `Oc1cccc2cccnc12` [8-Hydroxyquinoline]: the MIC with P. Ovale [1] was 100 µg/mL (≈ 0.689 mM).

Take `[O-][n+]1ccccc1[S-].[O-][n+]1ccccc1[S-].[Zn+2]` [Zn PTO, zinc salt of pyridinethione-N-oxide]: the “Minimum Inhibitory Concentration (MIC) against P. Ovale” value with P. Ovale [1] (agar, 27°C, 4 days) was 7-10 PPM. Besides, in the series on P. Ovale [2] (listed as Zinc PTO), the “Zone of Inhibition Against P. Ovale - Calf Skin, 1 Application” value is 4.5 and 4.0 and 5.0; the “Zone of Inhibition Against P. Ovale - Calf Skin, 2 Applications” value was 10.0 and 7.0 and 5.0. Further, the “Minimum Inhibitory Concentration, Aspergillus oryzae” value in the series with Aspergillus oryzae (ATCC 10196, Mycological Agar, 27°C, ten fold dilutions) is listed as 10 100 PPM. The antimicrobial spectrum result in series [3] was “broad-spectrum antimicrobial agents showing good activity at low concentrations against Gram-positive and negative bacteria, fungi and dermatophytes”. For `Oc1c(Cl)cc(Cl)c(Cl)c1Cc1c(O)c(Cl)cc(Cl)c1Cl` [Hexachlorophene], the MIC with P. Ovale [1] was > 1000 µg/mL. Regarding “N-alkyl-dimethyl-benzyl ammonium chloride”, in the series with P. Ovale [1] (agar, 27°C, 4 days), the “Minimum Inhibitory Concentration (MIC) against P. Ovale” value was > 1000 PPM.

For the molecule “Sodium salt of sulphosuccinate of undecylenic-monoalkylolamide”, in the series on P. Ovale [1] (agar, 27°C, 4 days), the “Minimum Inhibitory Concentration (MIC) against P. Ovale” value is given as > 1000 PPM. For the molecule `C=CCCCCCCCCC(=O)O` [Undecylenic acid], the MIC with P. Ovale [1] was 1000 µg/mL (≈ 5.43 mM). Regarding `O=C(Nc1ccc(Cl)cc1)Nc1ccc(Cl)c(Cl)c1` [Trichlorocarbanilide], the “Minimum Inhibitory Concentration (MIC) against P. Ovale” value in the series on P. Ovale [1] (agar, 27°C, 4 days) is > 1000 PPM. For the molecule `Oc1c(Cl)cc(Cl)cc1Sc1cc(Cl)cc(Cl)c1O` [Thio bis(dichlorophenol)], the “Minimum Inhibitory Concentration (MIC) against P. Ovale” value in the series on P. Ovale [1] (agar, 27°C, 4 days) is > 1000 PPM. Take `O=C(Nc1ccc(Br)cc1)c1cc(Br)cc(Br)c1O` [Tribromo salicyanilide]: in the series with P. Ovale [1] (agar, 27°C, 4 days), the “Minimum Inhibitory Concentration (MIC) against P. Ovale” value was 1000 PPM. On to `Oc1ccc(Cl)cc1Sc1cc(Cl)ccc1O` [2,2'-dihydroxy-5.5'-dichlorodiphenyl monosulfide], for which the MIC with P. Ovale [1] is > 1000 µg/mL. In the case of “N-alkyl-dimethyl-ethyl-benzyl ammonium cyclohexyl sulfamate”, the “Minimum Inhibitory Concentration (MIC) against P. Ovale” value in the series on P. Ovale [1] (agar, 27°C, 4 days) was > 1000 PPM. For `Oc1c(I)cc(I)c2cccnc12` [Diiodohydroxyquinoline], the MIC in the series on P. Ovale [1] (setting [5]) was determined as 1000 µg/mL (≈ 2.52 mM).

On to `O=c1[nH]c2cc(Cl)c(Br)cc2o1` [5-chloro-6-bromobenzoxazo-linone], for which the MIC with P. Ovale [1] (setting [5]) stood at 1000 µg/mL (≈ 4.02 mM). Consider `[O-][n+]1ccccc1S` [Na PTO, sodium salt of pyridinethione-N-oxide], for which the MIC in the series on P. Ovale [1] was 7 to 10 µg/mL; in the series on Staph. aureus (ATCC6538, read-out: Minimum Inhibitory Concentration, Staph. aureus), 0.1 µg/mL; in the series on Aspergillus oryzae (ATCC10196, read-out: Minimum Inhibitory Concentration, Aspergillus oryzae), 10100 µg/mL. Also, in [3], the antimicrobial spectrum entry was “broad-spectrum antimicrobial agents showing good activity at low concentrations against Gram-positive and negative bacteria, fungi and dermatophytes”. Regarding `Cc1cc(O)cc(C)c1Cl` [P-chloro-m-xylenol], the MIC in the series on P. Ovale [1] (setting [5]) is 1000 µg/mL (≈ 6.39 mM). As to `[O-][n+]1c(S)ccc2ccccc21.[Zn]` [Zn MQNO, Zinc 2-mercaptoquinoline-N-oxide], in the series with P. Ovale [2] (listed as MONO), the “Zone of Inhibition Against P. Ovale - Calf Skin, 1 Application” value was 0.5 and 1.5 and 1.0; the “Zone of Inhibition Against P. Ovale - Calf Skin, 2 Applications” value is 2.0 and 4.5 and 2.5. For the same molecule, the MIC in the series on T. interdigitale is 10100 µg/mL. Further, the “solubility relative to ZnPTO” value in series [4] was “less soluble than ZnPTO”.

In the case of `O=C(Nc1ccc(Cl)c(Cl)c1)c1cc(Cl)cc(Cl)c1O` [Tetrachloro salicyanilide], in the series with P. Ovale [1] (agar, 27°C, 4 days), the “Minimum Inhibitory Concentration (MIC) against P. Ovale” value is on record as 1000 PPM.

With Undecen-1-ol, the “Minimum Inhibitory Concentration (MIC) against P. Ovale” value in the series on P. Ovale [1] (agar, 27°C, 4 days) was > 1000 PPM.

Regarding “m-alkyl-dimethyl-ethyl-benzyl ammonium chloride”, the “Minimum Inhibitory Concentration (MIC) against P. Ovale” value with P. Ovale [1] (agar, 27°C, 4 days) was > 1000 PPM. On to `O=C(Nc1ccc(Cl)cc1)c1cc(Cl)cc(Cl)c1O` [Trichloro salicyanilide], for which the “Minimum Inhibitory Concentration (MIC) against P. Ovale” value in the series with P. Ovale [1] (agar, 27°C, 4 days) is recorded as > 1000 PPM. As to `Sc1ccc2ccccc2n1` [2-mercaptoquinoline], the MIC with P. Ovale [1] (setting [5]) was > 1000 µg/mL.
